Laboratory results published in PMC11052316, “New Transferrin Receptor-Targeted Peptide–Doxorubicin Conjugates: Synthesis and In Vitro Antitumor Activity” (Molecules, 2024).
Where two headings read alike, the source gives them in different places. Square brackets hold non-standard residues; d marks the D form. Peptide text beside a SMILES is read from it. * marks the point of attachment. X1 = COc1cccc2c1C(=O)c1c(O)c3c(c(O)c1C2=O)C[C@@](O)(C(=O)CO)C[C@@H]3O[C@H]1C[C@H](NC(=O)CCS*)[C@H](O)[C@H](C)O1

Key:
U87 cells [1] = assay: In vitro cytotoxicity, CCK-8 assay; assay type: cell-based, human; details: for IC50: U87, 48 h, CCK-8, mean ± SD (n = 3); for cell viability: 48 h, CCK-8
Protocol: (§1) Human HepG2 hepatocellular carcinoma cells and human U87 glioblastoma cells were purchased from Procell Life Science & Technology Co., Ltd. (Wuhan, China), human A549 lung carcinoma cells were obtained from the School of Basic Medical Sciences, Chengde Medical University, human LO2 normal hepatic cells were purchased from Jennio Biotech Co., Ltd. (Guangzhou, China). The cells were cultured in DMEM (HepG2), MEM containing 1% non-essential amino acids (U87), and RPMI-1640 (A549 and LO2), supplemented with 10% fetal bovine serum (FBS) and 1% penicillin/streptomycin at 37 °C in a humidified atmosphere with 5% CO2.
(§2) A549, HepG2, U87, and LO2 cells were each seeded in 96-well cell culture plates at a density of 6 × 10^3 cells per well and incubated at 37 °C for 24 h. Then, cells were treated with serial concentrations of free DOX or the peptide–DOX conjugates for 48 h. After incubation, CCK-8 (10 μL) was added to each well and incubated for an additional 2 h. The absorbance of each well was measured at 450 nm with a reference wavelength of 630 nm by using a Multiskan GO microplate reader (Thermo Fisher Scientific, Waltham, MA, USA). Data for each cell line treated with free DOX or PDCs were obtained from three independent experiments.

LO2 cells [2] = assay: In vitro cytotoxicity, CCK-8 assay; assay type: cell-based, human; details: LO2, 48 h, CCK-8, mean ± SD (n = 3)
Protocol: as §1, §2

LO2 cells [3] = assay: Confocal microscopy analysis of cellular uptake; assay type: cell-based, human; details: LO2, 10 μM, 4 h, confocal laser scanning microscopy
Protocol: (§3) A549, HepG2, U87, or LO2 cells were seeded on glass coverslips (5 × 10^4 cells/well) in 24-well cell culture plates and incubated at 37 °C for 24 h. Then, cells were treated with the peptide–DOX conjugates (equivalent DOX concentration of 10 μM) for 4 and 12 h, respectively. Cells treated with free DOX (10 μM) for 4 h were used as the positive control. After the drugs in each well were discarded, cells were washed three times with PBS and fixed with 4% paraformaldehyde for 12 h. Cell nuclei were stained with DAPI for 8 min. The fluorescent images of cells were observed by using a confocal laser scanning microscope (Olympas FV3000).

HepG2 cells [4] = assay: Confocal microscopy analysis of cellular uptake; assay type: cell-based, human
Protocol: as §3
(§4) After removal of the peptide solution, cells were washed three times with PBS and incubated with the ^DT7-SS-DOX conjugate (equivalent DOX concentration of 10 μM) for 4 h. Cell fixation, staining, and cellular uptake analysis by confocal microscopy were conducted as aforementioned methods.

A549 cells [5] = assay: Confocal microscopy analysis of cellular uptake; assay type: cell-based, human
Protocol: as §3, §4

U87 cells [6] = assay: Confocal microscopy analysis of cellular uptake; assay type: cell-based, human
Protocol: as §3, §4

[7] = Reduction-triggered degradation / drug release by GSH; assay type: physicochemical; details: 37 °C; for remaining at 1 h, 100 µM: read-out: conjugate remained undegraded; for t1/2 of degradation in 5 mM GSH: intact conjugate by HPLC, mean ± SD
Protocol: A stock solution of ^LT7-SS-DOX or ^DT7-SS-DOX was diluted by adding 5 mM or 5 μM GSH dissolved in acetonitrile-PBS (3:7, v/v) to a final volume of 800 μL with 100 μM conjugate, and the mixture was incubated at 37 °C. Aliquots (100 μL) were taken from the incubation solution at scheduled time intervals and diluted with acetonitrile–PBS (3:7, v/v, 200 μL). After filtration, the intact conjugate that remained in the sample was analyzed by HPLC.

HepG2 cells [8] = assay: In vitro cytotoxicity, CCK-8 assay; assay type: cell-based, human; details: for cell viability: 48 h, CCK-8
Protocol: as §1, §2

A549 cells [9] = assay: In vitro cytotoxicity, CCK-8 assay; assay type: cell-based, human; details: for cell viability: 48 h, CCK-8
Protocol: as §1, §2

[10] = In vitro stability of conjugates in mouse serum; assay type: in vitro ADME; details: 37 °C; for half-life at 100 µM: mouse serum (200 µL in 800 µL, diluted with water), 80 μL of 1 mM conjugate stock + 520 μL ultra-pure water + 200 μL mouse serum, methanol quench, centrifugation, intact PDC by HPLC (C18, 254 nm), mean ± SD, read-out: t1/2 of degradation in mouse serum (converted)
Protocol: The in vitro stability experiment of the conjugates was conducted by co-incubation with mouse serum, as previously described, with minor modifications. An 80 μL of ^LT7-SS-DOX or ^DT7-SS-DOX stock solution (1 mM) was diluted by adding ultra-pure water (520 μL) and mouse serum (200 μL). The mixture was incubated at 37 °C, aliquots (100 μL) were taken at scheduled time intervals, and then methanol (300 μL) was added to terminate the incubation. After centrifugation at 10,000 rpm for 10 min, the intact PDC that remained in the supernatant was analyzed by HPLC.

[11] = 5 mM GSH in acetonitrile-PBS (3:7, v/v), 100 μM conjugate, 1 h, HPLC, n = 3
[12] = 5 mM GSH in acetonitrile-PBS (3:7, v/v), 100 μM conjugate, n = 3

## COc1cccc2c1C(=O)c1c(O)c3c(c(O)c1C2=O)C[C@@](O)(C(=O)CO)C[C@@H]3O[C@H]1C[C@H](N)[C@H](O)[C@H](C)O1 [DOX, Doxorubicin]
U87 cells [1]
  IC50: 1.65 ± 0.2 µM
LO2 cells [2]
  IC50: 1.29 ± 0.18 µM
LO2 cells [3]
  location of red (DOX) fluorescence in cells: located in the cell nuclei
HepG2 cells [4]; HepG2, 10 μM, 4 h, confocal laser scanning microscopy
  location of red (DOX) fluorescence in cells: located in the cell nuclei
A549 cells [5]; A549, 10 μM, 4 h, confocal laser scanning microscopy
  location of red (DOX) fluorescence in cells: located in the cell nuclei
U87 cells [6]; U87, 10 μM, 4 h, confocal laser scanning microscopy
  location of red (DOX) fluorescence in cells: located in the cell nuclei

## CC[C@@H](C)[C@@H](NC(=O)[C@@H](Cc1ccc(O)cc1)NC(=O)[C@H]1CCCN1C(=O)[C@@H](CCCNC(=N)N)NC(=O)[C@H](N)Cc1c[nH]cn1)C(=O)N[C@H](C)C(=O)N[C@H](Cc1c[nH]cn1)C(=O)N[C@H](CSSCCC(=O)N[C@H]1C[C@H](O[C@H]2C[C@](O)(C(=O)CO)Cc3c(O)c4c(c(O)c32)C(=O)c2c(OC)cccc2C4=O)O[C@@H](C)[C@H]1O)C(=O)O [^DT7-SS-DOX] (H-[dH][dR][dP][dY][dI][dA][dH][dC](X1)-OH)
[7]; [11]
  remaining at 1 h, 100 µM: 72.1%
[7]; [12]
  t1/2 of degradation in 5 mM GSH: 1.93 ± 0.13 h
[7]; 5 mM GSH
  t1/2 in 5 mM GSH, times longer than that of ^LT7-SS-DOX: ~8 times
HepG2 cells [8]; HepG2, 48 h, CCK-8, mean ± SD (n = 3)
  IC50: 7.01 ± 1.64 µM
A549 cells [9]; A549, 48 h, CCK-8, mean ± SD (n = 3)
  IC50: 20.6 ± 4.81 µM
U87 cells [1]
  IC50: 5.7 ± 0.22 µM
LO2 cells [2]
  IC50: > 100 µM
[10]
  half-life at 100 µM: 8.58 ± 0.85 h
HepG2 cells [4]; HepG2, pre-treated with TfR affinity peptide 100 μM 8 h, then conjugate at equivalent DOX 10 μM for 4 h
  fluorescence intensity after pre-treatment with TfR affinity peptide versus without (TfR competitive inhibition assay): lower
A549 cells [5]; A549, pre-treated with TfR affinity peptide 100 μM 8 h, then conjugate at equivalent DOX 10 μM for 4 h
  fluorescence intensity after pre-treatment with TfR affinity peptide versus without (TfR competitive inhibition assay): lower
U87 cells [6]; U87, pre-treated with TfR affinity peptide 100 μM 8 h, then conjugate at equivalent DOX 10 μM for 4 h
  fluorescence intensity after pre-treatment with TfR affinity peptide versus without (TfR competitive inhibition assay): lower

## CC[C@H](C)[C@H](NC(=O)[C@H](C)NC(=O)[C@H](Cc1c[nH]cn1)NC(=O)[C@@H](N)CSSCCC(=O)N[C@H]1C[C@H](O[C@H]2C[C@](O)(C(=O)CO)Cc3c(O)c4c(c(O)c32)C(=O)c2c(OC)cccc2C4=O)O[C@@H](C)[C@H]1O)C(=O)N[C@@H](Cc1ccc(O)cc1)C(=O)N1CCC[C@H]1C(=O)N[C@@H](CCCNC(=N)N)C(=O)N[C@@H](Cc1c[nH]cn1)C(=O)O [^LT7-SS-DOX]
[7]; 5 μM GSH in acetonitrile-PBS (3:7, v/v), 100 μM conjugate, 1 h, HPLC, n = 3
  remaining at 1 h, 100 µM: 93.7%
[7]; [11]
  conjugate remained undegraded: completely degraded
[7]; [12]
  t1/2 of degradation in 5 mM GSH: 0.26 ± 0.01 h
HepG2 cells [8]; HepG2, equal DOX concentration of 20 µM
  cell viability: 73.1%
HepG2 cells [8]; HepG2, equal DOX concentration of 40 µM
  cell viability: 61.5%
A549 cells [9]; A549, equal DOX concentration of 20 µM
  cell viability: 83.2%
A549 cells [9]; A549, equal DOX concentration of 40 µM
  cell viability: 67.2%
U87 cells [1]; U87, equal DOX concentration of 20 µM
  cell viability: 95.1%
U87 cells [1]; U87, equal DOX concentration of 40 µM
  cell viability: 41.0%
[10]; 80 μL of 1 mM stock + 520 μL water + 200 μL mouse serum, 1 h, HPLC
  intact conjugate in mouse serum at 1 h: almost entirely degraded
[10]
  half-life at 100 µM: 0.37 ± 0.02 h
